Converted amounts (≈) assume the structure as drawn. Where a SMILES comes first, the peptide text is derived from it. [ ]: non-standard residue; d: D form.
Experiments:
Format in all cases: cell-based
C. quillermondiae = assay: MIC, clinical yeast strains; design: Minimum inhibitory concentration: unit: μg/ml; conditions: C. quillermondiae clinical yeast strain 1
How it was run: (§1)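 Overnight MH agar colonies were suspended in MH broth to 5.0×10^5 cfu/ml, mixed with serial peptide dilutions (0.125–128 μg/ml) and incubated at 37° C for 20 to 24 hours. Yeast MICs were run the same way in potato dextrose broth, and wells were scored visually.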

[1] = test system: clinical strains of Acinetobacter baumannii; assay: MIC, microdilution, clinical strains; design: unit: μg/ml; conditions: 0.02% BSA, 0.2% acetic acid
How it was run: (§2)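 Broth microdilution with inocula adjusted to 5.0×10^5 cfu/ml; peptides tested at 0.125 to 128 μg/ml and incubated at 37° C for 20 to 24 hours. Bacteria were grown in Mueller Hinton broth, yeasts in potato dextrose broth. MIC was the lowest concentration showing no visible growth.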

[2] = test system: clinical strains of A. johnsonii; assay: MIC, microdilution, clinical strains; design: unit: μg/ml; conditions: Acinetobacter johnsonii strain 1, Muller Hinton broth-cation adjusted, 0.02% BSA, 0.2% acetic acid
How it was run: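 Broth microdilution in Potato dextrose broth, inoculum 5.0×10^5 cfu/ml, peptide 0.125–128 μg/ml, incubated at 37 °C for 20–24 h; MIC taken as lowest concentration without visible growth. A. johnsonii clinical strains were tested the same way in Mueller Hinton broth.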

C. parapsilosis = assay: MIC, clinical yeast strains
How it was run: as §1

Candida albicans = assay: MIC, clinical yeast strains
How it was run: as §1

C. glabrata = assay: MIC, clinical yeast strains
How it was run: as §1

[3] = test system: clinical strains of Proteus mirabilis; assay: MIC, microdilution, clinical strains; conditions: 0.02% BSA, 0.2% acetic acid
How it was run: as §2

[4] = test system: clinical strains of S. aureus; assay: MIC, microdilution, clinical strains; conditions: 0.02% BSA, 0.2% acetic acid
How it was run: as §2

[5] = test system: clinical strains of Serratia marcescens; assay: MIC, microdilution, clinical strains; conditions: 0.02% BSA, 0.2% acetic acid
How it was run: as §2

[6] = test system: clinical strains of K. pneumoniae; assay: MIC, microdilution, clinical strains; conditions: 0.02% BSA, 0.2% acetic acid
How it was run: as §2

[7] = test system: clinical strains of E. cloacae; assay: MIC, microdilution, clinical strains; conditions: 0.02% BSA, 0.2% acetic acid
How it was run: as §2

[8] = test system: clinical strains of S. pneumoniae; assay: MIC, microdilution, clinical strains; conditions: 0.02% BSA, 0.2% acetic acid
How it was run: as §2

[9] = test system: clinical strains of E. coli; assay: MIC, microdilution, clinical strains
How it was run: as §2

[10] = test system: clinical strains of P. aeruginosa; assay: MIC, microdilution, clinical strains; conditions: 0.02% BSA, 0.2% acetic acid
How it was run: as §2

[11] = Acinetobacter baumannii strain 1, Muller Hinton broth-cation adjusted
[12] = Acinetobacter baumannii strain 2, Muller Hinton broth-cation adjusted
[13] = Acinetobacter baumannii strain 3, Muller Hinton broth-cation adjusted
[14] = Acinetobacter baumannii strain 4, Muller Hinton broth-cation adjusted
[15] = Acinetobacter baumannii strain 5, Muller Hinton broth-cation adjusted
[16] = C. parapsilosis clinical yeast strain 1
[17] = C. parapsilosis clinical yeast strain 2
[18] = C. parapsilosis clinical yeast strain 3
[19] = C. parapsilosis clinical yeast strain 4
[20] = Candida albicans clinical yeast strain 1
[21] = Candida albicans clinical yeast strain 2
[22] = Candida albicans clinical yeast strain 3
[23] = Candida albicans clinical yeast strain 4
[24] = Candida albicans clinical yeast strain 5
[25] = C. glabrata clinical yeast strain 1
[26] = C. glabrata clinical yeast strain 2
[27] = C. glabrata clinical yeast strain 3
[28] = C. glabrata clinical yeast strain 4
[29] = Proteus mirabilis strain 1, Muller Hinton broth-cation adjusted
[30] = Proteus mirabilis strain 2, Muller Hinton broth-cation adjusted
[31] = Proteus mirabilis strain 3, Muller Hinton broth-cation adjusted
[32] = Proteus mirabilis strain 4, Muller Hinton broth-cation adjusted
[33] = Proteus mirabilis strain 5, Muller Hinton broth-cation adjusted
[34] = Staphylococcus aureus strain 1, Muller Hinton broth-cation adjusted
[35] = Staphylococcus aureus strain 2, Muller Hinton broth-cation adjusted
[36] = Staphylococcus aureus strain 3, Muller Hinton broth-cation adjusted
[37] = Staphylococcus aureus strain 4, Muller Hinton broth-cation adjusted
[38] = Staphylococcus aureus strain 5, Muller Hinton broth-cation adjusted
[39] = Serratia marcescens strain 1, Muller Hinton broth-cation adjusted
[40] = Serratia marcescens strain 2, Muller Hinton broth-cation adjusted
[41] = Serratia marcescens strain 3, Muller Hinton broth-cation adjusted
[42] = Serratia marcescens strain 4, Muller Hinton broth-cation adjusted
[43] = Serratia marcescens strain 5, Muller Hinton broth-cation adjusted
[44] = Klebsiella pneumoniae strain 1, Muller Hinton broth-cation adjusted
[45] = Klebsiella pneumoniae strain 2, Muller Hinton broth-cation adjusted
[46] = Klebsiella pneumoniae strain 3, Muller Hinton broth-cation adjusted
[47] = Klebsiella pneumoniae strain 4, Muller Hinton broth-cation adjusted
[48] = Klebsiella pneumoniae strain 5, Muller Hinton broth-cation adjusted
[49] = Enterobacter cloacae strain 1, Muller Hinton broth-cation adjusted
[50] = Enterobacter cloacae strain 2, Muller Hinton broth-cation adjusted
[51] = Enterobacter cloacae strain 3, Muller Hinton broth-cation adjusted
[52] = Enterobacter cloacae strain 4, Muller Hinton broth-cation adjusted
[53] = Enterobacter cloacae strain 5, Muller Hinton broth-cation adjusted
[54] = Streptococcus pneumoniae strain 1, Muller Hinton broth-cation adjusted
[55] = Streptococcus pneumoniae strain 2, Muller Hinton broth-cation adjusted
[56] = Streptococcus pneumoniae strain 3, Muller Hinton broth-cation adjusted
[57] = Streptococcus pneumoniae strain 4, Muller Hinton broth-cation adjusted
[58] = Streptococcus pneumoniae strain 5, Muller Hinton broth-cation adjusted
[59] = Escherichia coli strain 1, microdilution, Muller Hinton broth-cation adjusted, 0.02% BSA, 0.2% acetic acid
[60] = Escherichia coli strain 2, microdilution, Muller Hinton broth-cation adjusted, 0.02% BSA, 0.2% acetic acid
[61] = Escherichia coli strain 3, microdilution, Muller Hinton broth-cation adjusted, 0.02% BSA, 0.2% acetic acid
[62] = Escherichia coli strain 4, microdilution, Muller Hinton broth-cation adjusted, 0.02% BSA, 0.2% acetic acid
[63] = Escherichia coli strain 5, microdilution, Muller Hinton broth-cation adjusted, 0.02% BSA, 0.2% acetic acid
[64] = Pseudomonas aeruginosa strain 1, Muller Hinton broth-cation adjusted
[65] = Pseudomonas aeruginosa strain 2, Muller Hinton broth-cation adjusted
[66] = Pseudomonas aeruginosa strain 3, Muller Hinton broth-cation adjusted
[67] = Pseudomonas aeruginosa strain 4, Muller Hinton broth-cation adjusted
[68] = Pseudomonas aeruginosa strain 5, Muller Hinton broth-cation adjusted

CC(C)C[C@@H](NC(=O)[C@H](N)CCCNC(=N)N)C(=O)N[C@H](CCCCN)C(=O)N[C@H](CCCNC(=N)N)C(=O)N[C@H](Cc1c[nH]c2ccccc12)C(=O)N[C@H](CCCNC(=N)N)C(=O)N[C@H](CC(C)C)C(=O)N[C@H](Cc1ccccc1)C(=O)N[C@H](CCCNC(=N)N)C(=O)N[C@H](CCCCN)C(=O)N[C@H](CCCNC(=N)N)C(=O)O [Chain306D] (H-[dR][dL][dK][dR][dW][dR][dL][dF][dR][dK][dR]-OH)
Minimum inhibitory concentration (C. quillermondiae): 4 | Minimum inhibitory concentration [1, 11]: 16 | Minimum inhibitory concentration [1, 12]: 32 | Minimum inhibitory concentration [1, 13]: 16 | Minimum inhibitory concentration [1, 14]: 16 | Minimum inhibitory concentration [1, 15]: 8 | Minimum inhibitory concentration [2]: 16 | Minimum inhibitory concentration (C. parapsilosis; [16]): 8 | Minimum inhibitory concentration (C. parapsilosis; [17]): 16 | Minimum inhibitory concentration (C. parapsilosis; [18]): 16 | Minimum inhibitory concentration (C. parapsilosis; [19]): 4 | Minimum inhibitory concentration (Candida albicans; [20]): 16 | Minimum inhibitory concentration (Candida albicans; [21]): 8 | Minimum inhibitory concentration (Candida albicans; [22]): 8 | Minimum inhibitory concentration (Candida albicans; [23]): 16 | Minimum inhibitory concentration (Candida albicans; [24]): 16 | Minimum inhibitory concentration (C. glabrata; [25]): 8 | Minimum inhibitory concentration (C. glabrata; [26]): 8 | Minimum inhibitory concentration (C. glabrata; [27]): 16 | Minimum inhibitory concentration (C. glabrata; [28]): 32 | Minimum inhibitory concentration [3, 29]: >128 | Minimum inhibitory concentration [3, 30]: >128 | Minimum inhibitory concentration [3, 31]: >128 | Minimum inhibitory concentration [3, 32]: >128 | Minimum inhibitory concentration [3, 33]: >128 | Minimum inhibitory concentration [4, 34]: 16 | Minimum inhibitory concentration [4, 35]: 32 | Minimum inhibitory concentration [4, 36]: 32 | Minimum inhibitory concentration [4, 37]: 16 | Minimum inhibitory concentration [4, 38]: 8 | Minimum inhibitory concentration [5, 39]: >128 | Minimum inhibitory concentration [5, 40]: >128 | Minimum inhibitory concentration [5, 41]: >128 | Minimum inhibitory concentration [5, 42]: >128 | Minimum inhibitory concentration [5, 43]: >128 | Minimum inhibitory concentration [6, 44]: 128 | Minimum inhibitory concentration [6, 45]: >128 | Minimum inhibitory concentration [6, 46]: >128 | Minimum inhibitory concentration [6, 47]: 64 | Minimum inhibitory concentration [6, 48]: 64 | Minimum inhibitory concentration [7, 49]: 64 | Minimum inhibitory concentration [7, 50]: 64 | Minimum inhibitory concentration [7, 51]: 32 | Minimum inhibitory concentration [7, 52]: 16 | Minimum inhibitory concentration [7, 53]: 16 | Minimum inhibitory concentration [8, 54]: 64 | Minimum inhibitory concentration [8, 55]: 64 | Minimum inhibitory concentration [8, 56]: 64 | Minimum inhibitory concentration [8, 57]: 128 | Minimum inhibitory concentration [8, 58]: 64 | Minimum inhibitory concentration [9, 59]: 1 | Minimum inhibitory concentration [9, 60]: 2 | Minimum inhibitory concentration [9, 61]: 2 | Minimum inhibitory concentration [9, 62]: 2 | Minimum inhibitory concentration [9, 63]: 2 | Minimum inhibitory concentration ([9]; clinical strains, peptide synthesized as D-form amino acids): 1 µg/mL (≈ 0.619 µM) | Minimum inhibitory concentration [10, 64]: 128 | Minimum inhibitory concentration [10, 65]: >128 | Minimum inhibitory concentration [10, 66]: 128 | Minimum inhibitory concentration [10, 67]: >128 | Minimum inhibitory concentration [10, 68]: 128

CC(C)C[C@@H](NC(=O)[C@H](N)CCCNC(=N)N)C(=O)N[C@H](CCCCN)C(=O)N[C@H](Cc1c[nH]c2ccccc12)C(=O)N[C@H](Cc1ccccc1)C(=O)N[C@H](CC(C)C)C(=O)N[C@H](CC(C)C)C(=O)N[C@H](Cc1ccccc1)C(=O)N[C@H](CCCNC(=N)N)C(=O)N[C@H](CCCCN)C(=O)N[C@H](CCCNC(=N)N)C(=O)O [Chain308D] (H-[dR][dL][dK][dW][dF][dL][dL][dF][dR][dK][dR]-OH)
Minimum inhibitory concentration (C. quillermondiae): 4 | Minimum inhibitory concentration [1, 11]: 4 | Minimum inhibitory concentration [1, 12]: 4 | Minimum inhibitory concentration [1, 13]: 4 | Minimum inhibitory concentration [1, 14]: 2 | Minimum inhibitory concentration [1, 15]: 2 | Minimum inhibitory concentration [2]: 4 | Minimum inhibitory concentration (C. parapsilosis; [16]): 8 | Minimum inhibitory concentration (C. parapsilosis; [17]): 8 | Minimum inhibitory concentration (C. parapsilosis; [18]): 8 | Minimum inhibitory concentration (C. parapsilosis; [19]): 4 | Minimum inhibitory concentration (Candida albicans; [20]): 16 | Minimum inhibitory concentration (Candida albicans; [21]): 16 | Minimum inhibitory concentration (Candida albicans; [22]): 16 | Minimum inhibitory concentration (Candida albicans; [23]): 16 | Minimum inhibitory concentration (Candida albicans; [24]): 16 | Minimum inhibitory concentration (C. glabrata; [25]): 16 | Minimum inhibitory concentration (C. glabrata; [26]): 16 | Minimum inhibitory concentration (C. glabrata; [27]): 16 | Minimum inhibitory concentration (C. glabrata; [28]): 16 | Minimum inhibitory concentration [3, 29]: >128 | Minimum inhibitory concentration [3, 30]: 32 | Minimum inhibitory concentration [3, 31]: 128 | Minimum inhibitory concentration [3, 32]: >128 | Minimum inhibitory concentration [3, 33]: >128 | Minimum inhibitory concentration [4, 34]: 1 | Minimum inhibitory concentration [4, 35]: 2 | Minimum inhibitory concentration [4, 36]: 1 | Minimum inhibitory concentration [4, 37]: 2 | Minimum inhibitory concentration [4, 38]: 2 | Minimum inhibitory concentration [5, 39]: 128 | Minimum inhibitory concentration [5, 40]: 128 | Minimum inhibitory concentration [5, 41]: 64 | Minimum inhibitory concentration [5, 42]: >128 | Minimum inhibitory concentration [5, 43]: 128 | Minimum inhibitory concentration [6, 44]: 4 | Minimum inhibitory concentration [6, 45]: 4 | Minimum inhibitory concentration [6, 46]: 4 | Minimum inhibitory concentration [6, 47]: 4 | Minimum inhibitory concentration [6, 48]: 4 | Minimum inhibitory concentration [7, 49]: 2 | Minimum inhibitory concentration [7, 50]: 2 | Minimum inhibitory concentration [7, 51]: 2 | Minimum inhibitory concentration [7, 52]: 2 | Minimum inhibitory concentration [7, 53]: 2 | Minimum inhibitory concentration [8, 54]: 8 | Minimum inhibitory concentration [8, 55]: 4 | Minimum inhibitory concentration [8, 56]: 8 | Minimum inhibitory concentration [8, 57]: 2 | Minimum inhibitory concentration [8, 58]: 4 | Minimum inhibitory concentration [9, 59]: 1 | Minimum inhibitory concentration [9, 60]: 0.5 | Minimum inhibitory concentration [9, 61]: 1 | Minimum inhibitory concentration [9, 62]: 1 | Minimum inhibitory concentration [9, 63]: 1 | Minimum inhibitory concentration [10, 64]: 8 | Minimum inhibitory concentration [10, 65]: 8 | Minimum inhibitory concentration [10, 66]: 4 | Minimum inhibitory concentration [10, 67]: 4 | Minimum inhibitory concentration [10, 68]: 4

Source: US10457710B2, “Antimicrobial peptides, their variants and uses” (priority 2015, dated 2019)
